Format in all cases: cell-based
Assay [1] deals with cryopreserved day 26 cells induced from human iPS cell (253G1 strain, 201B7 strain). The assay is described as follows: Dopaminergic neuron marker expression by quantitative RT-PCR 2 weeks after thawing of cells cryopreserved on day 26. The following applies: Y27632 10 μM. Here is the method: Midbrain floor plate cells were induced by a method similar to the methods described in Reference Examples 1 to 3, the medium was exchanged with Neuro/B27 added with 0.1 mM ascorbic acid, 0.5 mM dbcAMP, 3 μM PD0325901, and 20 ng/ml activin A (R&D) on day 12 of culture, and the cells were cultured for 14 days more (total 26 days). After culture, the cells were washed with PBS, and dispersed by treating with Accutase (Innovative Cell Technologies) at 37° C. for 20-30 min. After centrifugal washing, the cells were suspended in cell banker 2 (Juji Field Inc.) at a concentration of about 2×10^6 cells/ml/tube, and cryopreserved at −80° C. The cryopreserved cells were thawed by immersion in a thermostatic tank at 37° C. and, after centrifugal washing, seeded in a 96 well plate at a density of 2×10^4 cells per well, and cultured at 37° C. under 5% CO2 for 2 weeks. As the above-mentioned 96 well plate, one coated at 37° C. overnight with Matrigel 1/30-1/40 diluted with DMEM/F12 (Life Technologies Corporation) or Laminin (Trevigen Inc.) diluted with DMEM/F12 at a concentration of 10 μg/ml was used. As the culture medium, Neuro/B27 added with one or more kinds of 0.1 mM ascorbic acid, 0.5 mM dbcAMP, 3 μM PD0325901, and 20 ng/ml activin A, or Neuro/B27 without addition of ascorbic acid, dbcAMP, PD0325901, and activin A as a control was used. […]

For assay [2], the system named is dopaminergic neuron induced from human iPS cell (253G1 strain, 201B7 strain). The assay is described as follows: Ability to release dopamine by high-KCl stimulation on day 50 of culture. The following applies: HBSS with 55 mM KCl vs HBSS. Here is the method: Floor plate cells were induced by a method similar to the methods described in Reference Examples 1 to 3, differentiation induction was performed by exchanging the medium with (A) Neuro/B27 added with 3 factors of ascorbic acid, dbcAMP and PD0325901, or (B) Neuro/B27 added with 2 factors of ascorbic acid and dbcAMP from day 13 of culture, and an ability to release dopamine by stimulation with high-KCl was evaluated on day 50 of culture.
The above-mentioned evaluation was performed as follows. The medium of the cells after differentiation induction was exchanged with Neuro/B27, and the cells were cultured overnight. […] For the analysis, a trace biological sample analysis system and HTEC500 (Eicom Corporation), electrochemical detector EPC-500 (Eicom Corporation) were used, and the amount of dopamine contained in the sample was measured according to the manual of Eicom Corporation (Eicom information No. 25). […] However, when differentiation was induced using the aforementioned (A) Neuro/B27, an increase in the amount of dopamine released by stimulation with high-KCl could be detected with good reproducibility even in a different lot.

Assay [3] relates to floor plate cells induced from human iPS cell (253G1 strain, 201B7 strain). The assay is described as follows: Study of various MEK inhibitors (including FGFR inhibitor): NURR1 expression by quantitative RT-PCR on day 45. To be noted: 253G1 strain, added to ascorbic acid and dbcAMP, 3 μM PD0325901, 3 μM PD184352, 10 μM SU5402. From the text: Whether midbrain dopaminergic neuron can be induced in a medium containing any of PD184352 (Axon MedChem), SU5402 (FGF receptor (FGFR) inhibitor, Wako Pure Chemical Industries, Ltd.) and PD173074 (FGFR inhibitor, Axon MedChem) instead of PD0325901 in the aforementioned (A) Neuro/B27 was studied.
Floor plate cells were induced by a method similar to the methods described in Reference Examples 1 to 3, the medium was exchanged with Neuro/B27 added with (1) 3 factors of ascorbic acid, dbcAMP and PD0325901, (2) 2 factors of ascorbic acid and dbcAMP, (3) ascorbic acid, dbcAMP and 3 μM PD184352, (4) ascorbic acid, dbcAMP and 10 μM SU5402, or (5) ascorbic acid, dbcAMP and 0.1 μM PD173074 on day 13 of culture, and the cells were cultured at 37° C. under 5% CO2 for not less than 30 days. The medium was exchanged every 3-4 days during the above-mentioned culture periods. On day 45 of culture, the cells were recovered, and expression variation of NURR1 was examined. In 253G1 strain, the expression of NURR1 was elevated by the addition of PD0325901, PD184352 or SU5402 and, in 201B7 strain, the expression of NURR1 was elevated by the addition of all 4 kinds.

Assay [4] shares this test system. The assay is described as follows: NURR1 expression by quantitative RT-PCR on day 45 after differentiation of floor plate cells. The following applies: 3 μM PD0325901 added in addition to ascorbic acid and dbcAMP. Here is the method: Floor plate cells were induced by a method similar to the methods described in Reference Examples 1 to 3, the medium was exchanged with (A) Neuro/B27 added with 3 factors of 0.1 mM ascorbic acid (SIGMA), 0.5 mM dibutyryl-cAMP (SIGMA, hereinafter to be indicated as dbcAMP) and 3 μM PD0325901, or (B) Neuro/B27 added with 2 factors of 0.1 mM ascorbic acid and 0.5 mM dbcAMP on day 13 of culture, and the cells were cultured at 37° C. under 5% CO2 for not less than 30 days. The medium was exchanged every 3-4 days during the above-mentioned culture periods. On day 45 of culture, the cells were recovered, and expression variation of NURR1 known as a transcription factor extremely important for the differentiation, maturation and maintenance of functions of midbrain dopaminergic neuron was examined.

The test system is the same in assay [5]. The experiment in a line: TH and NURR1 expression by quantitative RT-PCR on day 26 of culture. The following applies: dbcAMP and activin A. On the procedure: Floor plate cells were induced by a method similar to the methods described in Reference Examples 1 to 3, the medium was exchanged with Neuro/B27 added with one or more kinds of 0.1 mM ascorbic acid, 0.5 mM dbcAMP, 3 μM PD0325901, and 20 ng/ml activin A (R&D), or Neuro/B27 without addition of ascorbic acid, dbcAMP, PD0325901, and activin A as a control on day 12 of culture, and the cells were cultured for 14 days more (total 26 days). The cells after culture were recovered, and the expression variation of TH and NURR1 was examined by a method similar to Reference Example 3. […] On the other hand, when ascorbic acid, dbcAMP and PD0325901 were added, the expression level was lower at the time point of day 26 of culture than the addition of ascorbic acid, dbcAMP and activin A.

Assay [6] shares this test system. The experiment in a line: Immunofluorescent staining of TH, NURR1 and FOXA2 proteins on days 45-52 of culture. To be noted: PD0325901 added to ascorbic acid and dbcAMP (Example 1, (A)). Here is the method: Then, the expression of midbrain dopaminergic neuron markers TH, NURR1 and FOXA2 proteins was examined by immunofluorescent staining using anti-TH antibody, anti-NURR1 antibody and anti-FOXA2 antibody. Floor plate cells were induced by a method similar to the methods described in Reference Examples 1 to 3, differentiation induction was performed by exchanging the medium with (A) Neuro/B27 added with 3 factors of ascorbic acid, dbcAMP and PD0325901, or (B) Neuro/B27 added with 2 factors of ascorbic acid and dbcAMP from day 13 of culture, 4% PFA was added on days 45-52 of culture, and the cells were fixed at room temperature for 30 min. The cells were reacted with anti-TH antibody (AB152, Nihon Millipore K.K.), anti-NURR1 antibody (PP-N1404-00, Perseus Proteomics) and anti-FOXA2 antibody (sc-6544, Santa Cruz) as the primary antibodies, and sequentially reacted with Alexa488-labeled secondary antibody, Alexa568-labeled secondary antibody and Alexa647-labeled secondary antibody, corresponding to the immunized animal of the primary antibody, as the secondary antibodies, and observed under a fluorescence microscope. […]

Assay [7] deals with human iPS cell (253G1 strain, 201B7 strain). The experiment in a line: Time-course expression of differentiation markers by quantitative RT-PCR in the three-step differentiation system. The following applies: conditions excluding only purmorphamine (-Pur). On the procedure: In step 1, the cells were cultured in Neuro/B27 added with 0.5 μM LDN193189, 10 μM SB431542, 0.5 μM purmorphamine, 200 ng/ml SHH and 1 μM CHIR99021 for 5 days. In step 2, the cells were cultured in Neuro/B27 added with 0.5 μM LDN193189 and 1 μM CHIR99021 for 8 days (total 13 days). In step 3, the cells were cultured in Neuro/B27 added with 0.1 mM ascorbic acid, 0.5 mM dbcAMP and 3 μM PD0325901 for 32 days (total 45 days). After culture, time-course expression variation of various differentiation markers was measured by a method similar to Reference Example 3.
As a control, the cells were cultured under conditions without addition of a differentiation inducing factor (− in Figure), conditions excluding only SHH (−SHH in Figure) or conditions excluding only purmorphamine (−Pur in Figure). Also, the group subjected to differentiation induction under the conditions shown in FIG. 9 from step 2 onward was studied.

Turning to `C[C@@H](N)[C@H]1CC[C@H](C(=O)Nc2ccncc2)CC1` [Y27632, (R)-(+)-trans-4-(1-aminoethyl)-N-(4-pyridyl)cyclohexanecarboxamide], in assay [1], the “expression levels of the markers, presence or absence of Y27632” value is “scarcely different”.
As to `O=C(NOC[C@H](O)CO)c1ccc(F)c(F)c1Nc1ccc(I)cc1F` [PD0325901, N-[(2R)-2,3-dihydroxypropoxy]-3,4-difluoro-2-[(2-fluoro-4-iodophenyl)amino]-benzamide], the “increase in the amount of dopamine released by stimulation with high-KCl” value in assay [2] is recorded as “stably detected”. The “expression of NURR1” value is recorded as “elevated” in assay [3] and “further elevated highly” in assay [4]. In assay [5] (3 μM PD0325901 added together with ascorbic acid), the “expression of TH and NURR1” value was “further elevated highly”. Further, the “expression level of TH and NURR1” value in assay [5] (ascorbic acid, dbcAMP and PD0325901 compared with ascorbic acid) was “lower”. Besides, the “staining with NURR1 protein” value in assay [6] is “strongly-positive”.
As to `c1ccc2c(Oc3nc(Nc4ccc(N5CCOCC5)cc4)c4ncn(C5CCCCC5)c4n3)cccc2c1` [purmorphamine, N-(4-morpholinophenyl)-2-(1-naphthyloxy)-9-cyclohexyl-9H-purin-6-amine], in assay [7], the “expression of FOXA2” value is “low”.

The record behind these values is US10017734B2, “Method for producing dopaminergic neurons” (TAKEDA PHARMACEUTICAL COMPANY LIMITED, priority 2013, dated 2018).
